Earlier results in patent US20070092568A1 (priority 2005, published 2007).
Counter-ions that a name gives are not always drawn.

Solubility in water: sparingly soluble in water
Structure (SMILES): COc1ccc2c3c1O[C@H]1C[C@@H](O)C=C[C@@]31CCN(C)C2 [Galantamine hydrobromide, (4aS,6R,8aS)-4a,5,9,10,11,12-hexahydro-3-methoxy-11-methyl-6H-benzofuro[3a,3,2-ef][2]benzazepin-6-ol]
